Laboratory results from ChEMBL document CHEMBL1201862, “PubChem BioAssay data set” (2004).
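Where inhibition never reached the appropriate level, the endpoint shown equals the highest concentration tested. Otherwise, values were interpolated linearly from a five-concentration, 48-hour dose response in 96-well plates. Abbreviation: GI50, concentration required for 50% inhibition of growth.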 Activity calls are given as the source filed them. Rule as the data show it: active = GI50 up to about 1.1 µM and inactive = higher.

What was measured:
Experiment in all cases: DTP human tumour cell line panel, 48 h
HCT-116 = tested on: HCT-116
M14 = tested on: M14
HL-60 = tested on: HL-60
Malme-3M = tested on: Malme-3M
UO-31 = tested on: UO-31
IGROV-1 = tested on: IGROV-1
SN12C = tested on: SN12C
SK-OV-3 = tested on: SK-OV-3
OVCAR-5 = tested on: OVCAR-5
MOLT-4 = tested on: MOLT-4
OVCAR-4 = tested on: OVCAR-4
NCI-H23 = tested on: NCI-H23
A549 = tested on: A549
786-0 = tested on: 786-0
NCI-H226 = tested on: NCI-H226
RXF 393 = tested on: RXF 393
NCI-H522 = tested on: NCI-H522
EKVX = tested on: EKVX

Measured: GI50

CCCCCCCCOCC(O)COC(C)C (centres undefined)
inactive: HCT-116 53.1 µM | M14 56.4 µM | HL-60 14.9 µM | Malme-3M 61.7 µM | UO-31 41.3 µM | IGROV-1 > 100 µM | SN12C 24.2 µM | SK-OV-3 > 100 µM | OVCAR-5 > 100 µM | MOLT-4 17 µM | OVCAR-4 41.4 µM | NCI-H23 25.7 µM | A549 41.6 µM | 786-0 45.7 µM | NCI-H226 70 µM

CN(C)CCc1ccc(Cl)cc1Cl
inactive: HCT-116 > 100 µM | M14 > 100 µM | RXF 393 > 100 µM | HL-60 > 100 µM | Malme-3M > 100 µM | UO-31 > 100 µM | NCI-H522 > 100 µM | IGROV-1 > 100 µM | EKVX > 100 µM | SN12C > 100 µM | SK-OV-3 > 100 µM | OVCAR-5 > 100 µM | MOLT-4 > 100 µM | OVCAR-4 > 100 µM | NCI-H23 > 100 µM | A549 > 100 µM | 786-0 > 100 µM

Cc1cc(Cl)ccc1NC(=O)C1C(=O)C(=O)N(c2ccc(Cl)cc2C)C1=O (centres undefined)
inactive: HCT-116 43.8 µM | M14 31.2 µM | HL-60 > 100 µM | Malme-3M > 100 µM | UO-31 75.7 µM | NCI-H522 60.3 µM | IGROV-1 > 100 µM | EKVX 36.8 µM | SN12C > 100 µM | SK-OV-3 > 100 µM | OVCAR-5 48.3 µM | MOLT-4 24.7 µM | OVCAR-4 38.6 µM | NCI-H23 74.5 µM | A549 > 100 µM | 786-0 > 100 µM | NCI-H226 49.8 µM

CCCCCCCC/C=C\CCCCCCCC(=O)NCCN(CCN)C(=O)CCCCCCC/C=C\CCCCCCCC
inactive: HCT-116 > 100 µM | M14 > 100 µM | HL-60 > 100 µM | Malme-3M > 100 µM | UO-31 > 100 µM | IGROV-1 > 100 µM | SN12C > 100 µM | SK-OV-3 > 100 µM | OVCAR-5 > 100 µM | MOLT-4 > 100 µM | OVCAR-4 > 100 µM | NCI-H23 > 100 µM | A549 > 100 µM | 786-0 > 100 µM | NCI-H226 > 100 µM
